From article PMC4667195, “Tumor-selective peptide-carrier delivery of Paclitaxel increases in vivo activity of the drug” (Scientific Reports, 2015)
pEC50: −log10 of the molar value.

What was measured:
[1] = system: orthotopic MDA-MB 231-luc2 tumors; assay: Tumor growth in orthotopic MDA-MB 231-luc2 mouse model; assay type: in vivo, athymic nude mice; details: 2.86 μmol/Kg i.v. every 4 days
Procedure: MDA-MB 231-luc2 cells were injected orthotopically in the mammary fat pads of female athymic nude mice. […] Tumor growth was monitored by measuring volumes every 4 days with a caliber rule and by imaging luciferase reporter expression in tumor cells with a Photon Imager system at 8-day intervals.
Orthotopic breast tumors were established by injecting 1 × 10^6 MDA-MB 231-luc2 cells into the fourth mammary fat pad of athymic nude mice (Harlan Laboratories). Tumor growth was monitored every four days by measuring two perpendicular diameters with caliber. Tumor volume (V) was calculated by the following equation: V = (a^2 × b)/2, where “a” is the width of the tumor (small diameter), and b the length (large diameter), both in millimeters[22].
Treatments were started when the tumors reached at least 80 mm^3 in volume.
Tumor growth was also monitored by imaging luciferase reporter expression in tumor cells. To track MDA-MB 231-luc2 cells, bioluminescent optical imaging was performed using a Photon Imager system (Biospace Lab, Paris, France) including a cooled charge-coupled device (CCD) camera. Prior to imaging, mice were anaesthetized by intraperitoneal (i.p.) injection of 275 mg/kg Avertin. […] Bioluminescence was quantified by automatic measurement. ROI optical images were analyzed with M3 Vision software (Biospace Lab, Paris, France).

[2] = system: SKOV-3 human ovary adenocarcinoma cells; assay: Cytotoxicity (MTT growth inhibition) in SKOV-3; assay type: cell-based; details: SK-OV-3, 1 h incubation, wash, then 6 days at 37 °C without drug, 128 pM to 10 μM, performed twice in triplicate
Procedure: (§1) Growth inhibition was assessed by 3-(4,5-dimethylthiazol-2-yl)-2,5-diphenyltetrazolium bromide (MTT). […] The experiment was performed twice in triplicate.
(§2) EC50 values were calculated by non-linear regression analysis using Graph Pad Prism 5.03 software.

[3] = system: MDA-MB 231 human breast adenocarcinoma cells; assay: Cytotoxicity (MTT growth inhibition) in MDA-MB 231; assay type: cell-based; details: 1 h incubation, wash, then 6 days at 37 °C without drug, 128 pM to 10 μM, performed twice in triplicate
Procedure: as §1, §2

## CC(=O)O[C@H]1C(=O)[C@@]2(C)[C@H]([C@H](OC(=O)c3ccccc3)[C@]3(O)C[C@H](OC(=O)[C@H](O)[C@@H](NC(=O)c4ccccc4)c4ccccc4)C(C)=C1C3(C)C)[C@]1(OC(C)=O)CO[C@@H]1C[C@@H]2O [PTX, Paclitaxel]
[1]; days 4, 8, 12 and 16, n = 5 mice
  Slope of average tumor volume (percentage of the volume at day 4) versus time: 5.5
[1]; during treatment, days 4 to 16
  Effect on tumor growth (in words): clear reduction in tumor growth with respect to controls, but not tumor regression
[2]
  pEC50: 7.54
[3]
  pEC50: 7.21
